Data set [1] deals with T1, Aβ(1-40) (Homo sapiens, UniProt P05067).
T1 construct: […]; purchased Bachem, Torrance, Calif
Briefly: BASSR (Beta-Amyloid Self-Seeding Radioassay), inhibitors of self-seeded amyloid fibril growth. The format is biochemical. Conditions: 30 μM soluble Aβ(1-40) + 125I-labeled Aβ(1-40), 37° C., 3 to 5 hours; replicate values; letter = synthetic lot; ppt = precipitate; V-shaped = inhibition followed by precipitation. Summed up:
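Self-seeded growth of ^125I-labeled Aβ(1-40) fibrils in 50 mM sodium phosphate pH 7.5, 100 mM NaCl, 0.02% NaN3, 1 M urea; compound (3-fold dilutions from 100 μM final) preincubated 10 min on ice, then 3–5 h at 37° C. Fibrils collected by vacuum filtration on 0.2 μm filters and counted for radioactivity.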

For data set [2], the target named is T1, Aβ(1-40). Briefly: BASST (Beta-Amyloid Self-Seeding, Thioflavin T), inhibitors of self-seeded amyloid fibril growth. It is filed as biochemical. As to conditions: 30 μM soluble Aβ(1-40), 37° C., 3 to 5 hours, thioflavin T fluorescence; replicate values; letter = synthetic lot; read-out: BASST (IC50 = μM). The essentials:
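Self-seeded Aβ(1-40) fibril growth was run in 50 mM sodium phosphate pH 7.5, 100 mM NaCl, 0.02% NaN3, 1 M urea. Compounds were tested in 3-fold serial dilutions (top 100 μM final): 10 min on ice, then 3–5 h at 37 °C. Fibrils were read by 5 μM thioflavin T fluorescence (ex 440/em 485 nm).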

The target in the next data set is T2, Aβ (1-42) (Homo sapiens, UniProt P05067).
T2 construct: Required Aβ (1-42) (California Peptide) was dried from its hexafluoroisopropanol (HFIP) stock solution; purchased California Peptide
T2 sequence (P05067 672-713 limits assumed): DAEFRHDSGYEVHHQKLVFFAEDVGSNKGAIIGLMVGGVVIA
Briefly: BATYM assay (Aβ (1-42) aggregation, Thioflavin T fluorescence). It is filed as biochemical. As to conditions: Aβ 1-42 final concentration 100 μM, 37° C., 1 day, letter = synthetic lot. The essentials:
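Aβ (1-42) (100 μM final, PBS pH 7.4 from DMSO) incubated with compound at 37° C. for 1 day. Aggregation read by ThT (30 μM, glycine-NaOH pH 8.5) fluorescence, ex 440/em 485 nm; inhibition as fluorescence reduction corrected for compound-alone signal, IC50 by curve fitting from two experiments in triplicate.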

In another data set the target is T3, Aβ (1-40) peptide (Homo sapiens, UniProt P05067).
T3 construct: 10 μL 0.5 mg/mL Aβ (1-40) peptide in 20% HFIP
T3 sequence (P05067 672-711 limits assumed): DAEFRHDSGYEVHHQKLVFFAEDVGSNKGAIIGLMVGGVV
Briefly: BAPA (Beta-Amyloid Peptide Aggregation, pH 6.0, filtration). The format is biochemical. As to conditions: Aβ (1-40) 33 μM, pH 6.0, 2 to 4 hours at room temperature; replicate values; letter = synthetic lot. Summed up:
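Aggregation of human Aβ (1-40) peptide was measured in an endpoint filtration assay. The peptide was first reduced to monomer with hexafluoroisopropanol (HFIP), then used at 33 μM so it would aggregate at pH 6.0, and incubated for 2 to 4 hours at room temperature. Filter plates were washed with 100 μL phosphate buffer, impregnated with Meltilex, and counted on a Microbeta counter with background correction.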

Where “and” joins values, the source holds several entries; their conditions need not be identical. Equal values may be shown once.

For orientation: IC50 means the concentration that inhibits the measured activity by half. Usually melting point stands for the temperature of the solid-liquid transition.

T1 sequence (P05067 672-711 limits assumed): as above

Take `CCCN(CCC)c1cccc(CCc2ccc(Nc3ccccc3C(=O)O)cc2)c1.Cl` [Example 37, 2-{4-[2-(3-Dipropylaminophenyl)ethyl]phenylamino}benzoic acid monohydrochloride]: the melting point was 189 to 193 °C. The IC50 on Aβ(1-40) [1] was over 100 µM. Also, the IC50 on Aβ(1-40) [2] worked out at 0.8 µM. The same compound had an IC50 against Aβ (1-42) of 30.2 µM. In addition, 25 µM corresponded to half-maximal inhibition on Aβ (1-40) peptide (IC50).
`CCCCN(CCCC)c1cccc(CCc2ccc(Nc3ccccc3C(=O)O)cc2)c1.Cl` [Example 38, 2-{4-[2-(3-Dibutylaminophenyl)ethyl]phenylamino}benzoic acid monohydrochloride] gave a melting point of 175 to 180 °C. Moreover, the IC50 at Aβ(1-40) [1] was 20 µM and 10 µM. Also, the IC50 at Aβ(1-40) [2] amounted to 3 µM. Inhibition at Aβ (1-42) was half-maximal at 23.4 µM (IC50). On Aβ (1-40) peptide, this compound registered an IC50 of 184 µM.
Regarding `CC(=O)Nc1ccc(CCCc2ccc(Nc3ccccc3C(=O)O)cc2)cc1` [Example 39, 2-{4-[3-(4-Acetylaminophenyl)propyl]phenylamino}benzoic acid], the melting point lay within 176 to 178 °C. Further, on Aβ(1-40) [1], the IC50 is over 100 µM. The IC50 on Aβ(1-40) [2] is 20 µM. At Aβ (1-42), this compound came in with an IC50 of over 100 µM. Further, on Aβ (1-40) peptide, the IC50 is 21 µM.
In turn, `CC(=O)Nc1cccc(CCCc2ccc(Nc3ccccc3C(=O)O)cc2)c1` [Example 40, 2-{4-[3-(3-Acetylaminophenyl)propyl]phenylamino}benzoic acid] registered a melting point of 140 to 145 °C. The half-inhibitory concentration (IC50) at Aβ(1-40) [1] is over 100 µM. Also, the IC50 at Aβ(1-40) [2] worked out at 3 µM. The same compound returned an IC50 at Aβ (1-42) of over 100 µM. On Aβ (1-40) peptide, this compound came in with an IC50 of 53 µM.
In turn, `CCN(CC)c1cccc(CCc2ccc(Nc3ccccc3C(=O)O)cc2)c1.Cl` [Example 41, 2-{4-[2-(3-Diethylaminophenyl)ethyl]phenylamino}benzoic acid monohydrochloride] showed a melting point of 166 to 171 °C. For the same compound, the IC50 at Aβ(1-40) [1] was over 100 µM. In addition, on Aβ(1-40) [2], the IC50 came to 5 µM. The IC50 against Aβ (1-42) is 49.7 µM. The compound further had an IC50 against Aβ (1-40) peptide of 42 µM.
On the same counts, the results for `Cl.O=C(O)c1ccccc1Nc1ccc(CCc2cccc(N3CCCCC3)c2)cc1` [Example 42, 2-{4-[2-(3-Piperidin-1-ylphenyl)ethyl]phenylamino}benzoic acid monohydrochloride] are 187 to 193 °C, over 100 µM, 2 µM, 55.6 µM and 30 µM.
In turn, `CCCCN1CCCc2cc(C=C3SC(=S)N(CC(=O)O)C3=O)ccc21` [Example 55, {5-[(1-Butyl-1,2,3,4-tetrahydro-6-quinolyl)methylidene]-4-oxo-2-thioxothiazolidin-3-yl}acetic acid] came in with a melting point of 222 to 224 °C. Besides, the IC50 on Aβ(1-40) [1] was found to be 12 µM. Further, on Aβ(1-40) [2], the IC50 stood at 2 µM. The compound further returned a 50% inhibitory concentration (IC50) at Aβ (1-42) of 5.1 µM. Moreover, at Aβ (1-40) peptide, the 50% inhibitory concentration (IC50) was found to be 101 µM.
On the same counts, the results for `CCCCN1CCc2cc(C=C3SC(=S)N(CC(=O)O)C3=O)ccc21` [Example 56, {5-[(1-Butyl-2,3-dihydro-1H-indol-5-yl)methylidene]-4-oxo-2-thioxothiazolidin-3-yl}acetic acid] are over 250 °C, over 100 µM, 3 µM, 11.5 µM and 30 µM.
On the same counts, the results for `Cc1ccc(Nc2ccc(CCCc3ccc(Cl)c(Cl)c3)cc2)c(C(=O)O)c1` [Example 59, 2-{4-[3-(3,4-Dichloro-phenyl)propyl]phenylamino}-5-methyl-benzoic acid] are 98 to 99 °C, over 100 µM, over 100 µM, over 100 µM and 3 µM.
With `CS(=O)(=O)NC(=O)c1ccccc1Nc1ccc(CCCc2ccc(Cl)c(Cl)c2)cc1` [Example 60, N-(2-{4-[3-(3,4-Dichloro-phenyl)-propyl]-phenylamino}-benzoyl)-methanesulfonamide], the melting point fell in the range of 53 to 61 °C. Also, on Aβ(1-40) [1], the IC50 was over 100 µM. In addition, the IC50 at Aβ(1-40) [2] came out at 3 µM. This compound also had an IC50 against Aβ (1-42) of 40.7 µM. This compound displayed an IC50 against Aβ (1-40) peptide of 8 µM.
In turn, `O=C(O)c1cc([N+](=O)[O-])ccc1Nc1ccc(CCc2cccc(C(F)(F)F)c2Cl)cc1` [Example 63] gave a melting point of 207 to 209 °C. For the same compound, at Aβ(1-40) [1], the IC50 is 15 µM (2×) and 18 µM. Besides, the IC50 on Aβ(1-40) [2] came to 1 µM. The IC50 against Aβ (1-42) is 9.43 µM. In addition, the 50% inhibitory concentration (IC50) against Aβ (1-40) peptide came to 45 µM.
As to `Nc1ccc(Nc2ccc(CCc3ccc(Cl)c(Cl)c3)cc2)c(C(=O)O)c1` [Example 64, 5-Amino-2-{4-[2-(3,4-Dichloro-phenyl)-ethyl]-phenylamino}-benzoic acid], the melting point lay in the range of 137 to 142 °C. The IC50 on Aβ(1-40) [1] was over 100 µM. The IC50 at Aβ(1-40) [2] is 5 µM. The compound also yielded an IC50 at Aβ (1-42) of 35 µM. This compound also returned an IC50 against Aβ (1-40) peptide of over 100 µM.
`O=C(O)c1cc([N+](=O)[O-])ccc1Nc1ccc(CCc2ccccc2)cc1` [Example 65, 5-Nitro-2-(4-phenethyl-phenylamino)-benzoic acid] displayed a melting point of 198 to 202 °C. In addition, the IC50 at Aβ(1-40) [1] is 60 µM and 80 µM. The IC50 on Aβ(1-40) [2] is 1.5 µM. On Aβ (1-42), this compound registered an IC50 of 15.9 µM. Moreover, the IC50 against Aβ (1-40) peptide is over 100 µM.
As to `O=C(O)c1ccccc1Nc1ccc(CCc2ccc(F)c(C(F)(F)F)c2)cc1` [Example 66, 2-{4-[2-(4-Fluoro-3-trifluoromethyl-phenyl)-ethyl]-phenylamino}-benzoic acid], the melting point fell in the range of 148 to 150 °C. The IC50 at Aβ(1-40) [1] is over 100 µM. In addition, the IC50 at Aβ(1-40) [2] was found to be 2.1 µM. This compound returned a concentration for half-maximal inhibition (IC50) against Aβ (1-42) of 50.1 µM. On Aβ (1-40) peptide, this compound registered an IC50 of over 100 µM.
In the case of `O=C(O)c1cc([N+](=O)[O-])ccc1Nc1ccc(CCc2ccc(F)c(F)c2)cc1` [Example 67, 2-{4-[2-(3,4-Difluoro-phenyl)-ethyl]-phenylamino}-5-nitro-benzoic acid], the melting point lay within 203 to 208 °C. The half-maximal inhibitory concentration (IC50) at Aβ(1-40) [1] was 41 µM. Besides, the IC50 at Aβ(1-40) [2] was 4 µM. The same compound showed an IC50 at Aβ (1-42) of 13.3 µM. Besides, the IC50 against Aβ (1-40) peptide is over 60 µM.
For the compound `O=C(O)c1cc([N+](=O)[O-])ccc1Nc1ccc(CCc2ccc(F)c(C(F)(F)F)c2)cc1` [Example 69, 2-{4-[2-(4-Fluoro-3-trifluoromethyl-phenyl)-ethyl]-phenylamino}-5-nitro-benzoic acid], the melting point is 190 to 193 °C. At Aβ(1-40) [1], the IC50 was 2 µM and 3.5 µM. Also, the IC50 at Aβ(1-40) [2] worked out at 0.8 µM. This compound also came in with an IC50 on Aβ (1-42) of 11.7 µM. The IC50 at Aβ (1-40) peptide is 58 µM.
In the case of `O=C(O)c1ccccc1Nc1ccc(CCc2ccccc2)cc1` [Example 70, 2-(4-Phenethyl-phenylamino)-benzoic acid], the melting point lay within 173 to 182 °C. At Aβ(1-40) [1], the IC50 is 20 µM. For the same compound, the IC50 on Aβ(1-40) [2] came out at 10 µM. This compound showed an IC50 against Aβ (1-42) of over 100 µM. At Aβ (1-40) peptide, half-maximal inhibition (IC50) required 65 µM.
Turning to `O=C(O)c1cccnc1Nc1ccc(CCc2ccc(Cl)c(Cl)c2)cc1` [Example 72, 2-{4-[2-(3,4-Dichloro-phenyl)-ethyl]-phenylamino}-nicotinic acid], the melting point is 168 to 171 °C. Further, the IC50 on Aβ(1-40) [1] is 40 µM and 15 µM and 12 µM. Also, at Aβ(1-40) [2], the IC50 is 2 µM and 2.5 µM. Besides, at Aβ (1-42), the IC50 was found to be 74.8 µM. At Aβ (1-40) peptide, this compound had an IC50 of over 60 µM.
For the compound `O=C(O)c1cc([N+](=O)[O-])ccc1Nc1ccc(CCc2cccc(Cl)c2)cc1` [Example 73, 2-{4-[2-(3-Chloro-phenyl)-ethyl]-phenylamino}-5-nitro-benzoic acid], the melting point lay within 192.5 to 194.5 °C. The IC50 at Aβ(1-40) [1] is 25 µM and 35 µM and 40 µM. Besides, on Aβ(1-40) [2], the IC50 is 0.3 µM. The IC50 against Aβ (1-42) amounted to 9.43 µM. On Aβ (1-40) peptide, the IC50 is over 60 µM.
With `O=C(O)c1cc([N+](=O)[O-])ccc1Nc1ccc(CCc2ccc(Cl)cc2)cc1` [Example 74, 2-{4-[2-(4-Chloro-phenyl)-ethyl]-phenylamino}-5-nitro-benzoic acid], the melting point lay within 210 to 212 °C. Also, at Aβ(1-40) [1], the IC50 was 6 µM and 18 µM (2×) and 19 µM. In addition, the IC50 at Aβ(1-40) [2] was 0.3 µM and 0.5 µM. On Aβ (1-42), the IC50 came out at 8.36 µM. The same compound displayed a half-maximal inhibitory concentration (IC50) against Aβ (1-40) peptide of over 60 µM.
